From US12195427B2, “MASP-2 inhibitors and methods of use” (priority 2018, dated 2025)

Target: MASP-2 CCP2-SP (Homo sapiens (Human), UniProt O00187)
Assay: MASP-2 co-crystallization, X-ray crystallography and structure analysis (H-bonds, van der Waals contacts);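 on Ligand-pharmacophore element distance, pharmacophore element C2: distance from averaged pharmacophore element to bound ligand; missing value means element absent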;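 on Ligand-pharmacophore element distance, pharmacophore element C3: distance from averaged pharmacophore element to bound ligand; missing value means element absent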;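 on Ligand-pharmacophore element distance, pharmacophore element C4: distance from averaged pharmacophore element to bound ligand; missing value means element absent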;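 on Ligand-pharmacophore element distance, pharmacophore element C5: distance from averaged pharmacophore element to bound ligand; missing value means element absent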
Set-up: van der Waals contact distance, MASP-2 HIS 483 atom CD2 / van der Waals contact distance, MASP-2 HIS 483 atom NE2 / van der Waals contact distance, SER 654 C to compound atom / van der Waals contact distance, SER 654 O to compound atom / van der Waals contact distance, TRP 655 C to compound atom / van der Waals contact distance, MASP-2 GLY 528 atom CA / van der Waals contact distance TRP 655 atom CZ3 / van der Waals contact distance TRP 655 atom N / van der Waals contact distance TRP 655 atom CE3 / van der Waals contact distance GLY 656 atom C / van der Waals contact distance GLY 656 atom CA / van der Waals contact distance GLY 656 atom O / van der Waals contact distance, MASP-2 TYR 607 atom CD1 / van der Waals contact distance, MASP-2 PRO 606 atom O / d(C3,CA1) / d(CA1,N1)2 / d(H4,O1) / d(H4,O2) / d(O1,O2) / d(CA1,O2) / d(CA6,O1) / d(CA6,O2) / d(CA1,C5) / d(O2,H3) / d(N2,C2) / d(CA5,N2) / d(N2,C4) / d(N2,C6) / d(N2,CA3) / d(N2,O3) / d(O4,H2): unit not given beside the values
Details: for Ligand-pharmacophore element distance, pharmacophore element C2 / Ligand-pharmacophore element distance, pharmacophore element C3 / Ligand-pharmacophore element distance, pharmacophore element C4 / Ligand-pharmacophore element distance, pharmacophore element C5 / Ligand-pharmacophore element distance, pharmacophore element C6 / Ligand-pharmacophore element distance, pharmacophore element C7 / Ligand-pharmacophore element distance, pharmacophore element CA1 / Ligand-pharmacophore element distance, pharmacophore element CA2 / Ligand-pharmacophore element distance, pharmacophore element CA3 / Ligand-pharmacophore element distance, pharmacophore element CA4 / Ligand-pharmacophore element distance, pharmacophore element CA5 / Ligand-pharmacophore element distance, pharmacophore element CA6: Table A4-1; for a(N1, CA1, O1) b): Methyl-amino-pyridine compounds
Outline: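 Inhibitor complexes were obtained by soaking crystals of E. coli-derived human MASP-2 CCP2-SP. Synchrotron diffraction at 1.0 wavelength, molecular replacement and partial refinement gave the models; one pose per ligand was chosen for contact analysis.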

[1] = Table A5-1 pharmacophore: distance between elements, S2/S1 region
[2] = Table A5-2 pharmacophore distance, S3/S4 region
[3] = Table A7-1, between pharmacophore elements of the bound compound
[4] = Table A7-2, between pharmacophore elements of the bound compound
[5] = Table A8-6, nearest protein atom in cell to the left

MASP-2 CCP2-SP, sequence (O00187 445-686): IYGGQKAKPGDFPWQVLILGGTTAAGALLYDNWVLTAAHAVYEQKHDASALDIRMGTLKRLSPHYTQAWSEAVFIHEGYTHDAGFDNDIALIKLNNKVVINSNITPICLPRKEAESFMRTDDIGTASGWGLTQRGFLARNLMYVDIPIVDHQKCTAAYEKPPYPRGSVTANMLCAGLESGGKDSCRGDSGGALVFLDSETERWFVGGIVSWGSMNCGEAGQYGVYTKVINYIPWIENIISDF
MASP-2 CCP2-SP, sequence (O00187 364-432 partner): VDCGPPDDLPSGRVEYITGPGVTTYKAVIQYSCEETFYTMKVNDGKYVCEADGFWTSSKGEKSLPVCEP

## C[C@H](NC(=O)[C@H](N)CCCc1ccccc1)C(=O)NCc1ccc(C(=N)N)cc1.Cl.Cl [1042_1]
  Ligand-pharmacophore element distance, pharmacophore element C2: 1.81
  Ligand-pharmacophore element distance, pharmacophore element C3: 0
  Ligand-pharmacophore element distance, pharmacophore element C4: 0
  Ligand-pharmacophore element distance, pharmacophore element C5: 0
  Ligand-pharmacophore element distance, pharmacophore element C6: 0
  Ligand-pharmacophore element distance, pharmacophore element C7: 0
  Ligand-pharmacophore element distance, pharmacophore element CA1: 0.87
  Ligand-pharmacophore element distance, pharmacophore element CA2: 0.48
  Ligand-pharmacophore element distance, pharmacophore element CA3: 0
  Ligand-pharmacophore element distance, pharmacophore element CA4: 0
  Ligand-pharmacophore element distance, pharmacophore element CA5: 0
  Ligand-pharmacophore element distance, pharmacophore element CA6: 0
Table A4-2, element H1
  Ligand-pharmacophore element distance, pharmacophore element H1: 0
Table A4-2, element H2
  Ligand-pharmacophore element distance, pharmacophore element H2: 0
Table A4-2, element H3
  Ligand-pharmacophore element distance, pharmacophore element H3: 5.4
Table A4-2, element H4
  Ligand-pharmacophore element distance, pharmacophore element H4: 3.08
Table A4-2, element N1
  Ligand-pharmacophore element distance, pharmacophore element N1: 1.3
Table A4-2, element N2
  Ligand-pharmacophore element distance, pharmacophore element N2: 0.56
Table A4-2, element O1
  Ligand-pharmacophore element distance, pharmacophore element O1: 2.71
Table A4-2, element O2
  Ligand-pharmacophore element distance, pharmacophore element O2: 0.67
Table A4-2, element O3
  Ligand-pharmacophore element distance, pharmacophore element O3: 0
Table A4-2, element O4
  Ligand-pharmacophore element distance, pharmacophore element O4: 0
[1]
  d(CA1,N1): 3.58
  d(CA1,O1): 3.98
  d(CA1,O2): 4.13
  d(H4,O1): 3.35
  d(H4,O2): 3.67
  d(O1,O2): 3.40
[2]
  d(N2,C2): 3.42
  d(N2,CA2): 6.20
  d(O2,H3): 5.43
  d(O2,N2): 2.64
Table A6-1 pharmacophore angle
  a(CA1, O1, O2): 117.21
  a(O1, O2, H4): 122.15
Table A6-1 pharmacophore angle, all compounds with protonatable center N1 except Methyl-amino-pyridine
  A(N1, CA1, O1) a): 158.11
Table A6-2 pharmacophore angle
  a(O1, O2, H3): 149.96
  a(O1, O2, N2): 170.80
  a(O2, N2, C2): 140.47
  a(O2, N2, CA2): 155.50
[3]
  Pharmacophore torsion angle a(H4, O1, O2, H3): −19.99
  Pharmacophore torsion angle a(H4, O1, O2, N2): 68.67
  Pharmacophore torsion angle a(N1, CA1, O2, H4): 9.10
  Pharmacophore torsion angle a(O1, H4, O2, CA1): −160.50
  Pharmacophore torsion angle a(O1, O2, N2, C2): 115.48
[4]
  Pharmacophore torsion angle a(O1, O2, N2, CA2): 136.01
Table A8-6, 6th residue column, nearest protein atom in cell to the left
  Pharmacophore protein distance to MET_658 (first MET_658 column): 2.06
Table A8-6, 9th residue column, nearest protein atom in cell to the left
  Pharmacophore protein distance to MET_658 (second MET_658 column): 3.40
[5]
  Pharmacophore protein distance to GLY_528: 4.67
  Pharmacophore protein distance to PHE_529: 3.84
  Pharmacophore protein distance to PRO_608: 3.46
  Pharmacophore protein distance to SER_611: 2.14
Table A8-6, pharmacophore elements C6, CA3, O3, H1, nearest protein atom in cell to the left
  Pharmacophore protein distance to TRP_655: 3.28

## Cc1nc(N)ccc1CNC(=O)C(C)NC(=O)C1CC(c2cccc3ccccc23)CCN1.Cl.Cl (stereo not drawn) [1297_1]
  Ligand-pharmacophore element distance, pharmacophore element C2: 0.34
  Ligand-pharmacophore element distance, pharmacophore element C3: 0.3
  Ligand-pharmacophore element distance, pharmacophore element C4: 0
  Ligand-pharmacophore element distance, pharmacophore element C5: 0
  Ligand-pharmacophore element distance, pharmacophore element C6: 0
  Ligand-pharmacophore element distance, pharmacophore element C7: 0
  Ligand-pharmacophore element distance, pharmacophore element CA1: 0.39
  Ligand-pharmacophore element distance, pharmacophore element CA2: 0.19
  Ligand-pharmacophore element distance, pharmacophore element CA3: 0
  Ligand-pharmacophore element distance, pharmacophore element CA4: 1.24
  Ligand-pharmacophore element distance, pharmacophore element CA5: 0
  Ligand-pharmacophore element distance, pharmacophore element CA6: 0
[1]
  d(C3,CA1): 2.87
  d(CA1,N1)2: 1.39
  d(CA1,O1): 4.35
  d(CA1,O2): 3.86
  d(H4,O1): 4.31
  d(H4,O2): 3.81
  d(O1,O2): 3.46
[2]
  d(N2,C2): 1.44
  d(N2,CA2): 5.68
  d(O2,H3): 4.23
  d(O2,N2): 2.71
Table A6-1 pharmacophore angle
  a(C3, CA1, O1): 149.59
  a(CA1, O1, O2): 107.14
  a(O1, O2, H4): 130.08
  a(N1, CA1, O1) b): 174.57
Table A6-2 pharmacophore angle
  a(O1, O2, H3): 144.22
  a(O1, O2, N2): 143.88
  a(O2, N2, C2): 130.88
  a(O2, N2, CA2): 156.06
[3]
  Pharmacophore torsion angle a(C3, CA1, O1, H4): 30.15
  Pharmacophore torsion angle a(H4, O1, O2, H3): 50.42
  Pharmacophore torsion angle a(H4, O1, O2, N2): 137.09
  Pharmacophore torsion angle a(N1, CA1, O1, H4): 26.85
  Pharmacophore torsion angle a(O1, H4, O2, CA1): −85.98
  Pharmacophore torsion angle a(O1, O2, N2, C2): 117.40
[4]
  Pharmacophore torsion angle a(O1, O2, N2, CA2): 131.38
  Pharmacophore torsion angle a(O1, O2, N2, CA4): 110.58

## Cc1nc(N)ccc1CNC(=O)[C@H](C)NC(=O)[C@H]1C[C@H](Cc2cccc(Cl)c2)CN1.Cl.Cl [1328_2]
  Ligand-pharmacophore element distance, pharmacophore element C2: 0
  Ligand-pharmacophore element distance, pharmacophore element C3: 0.15
  Ligand-pharmacophore element distance, pharmacophore element C4: 1.28
  Ligand-pharmacophore element distance, pharmacophore element C5: 0
  Ligand-pharmacophore element distance, pharmacophore element C6: 0
  Ligand-pharmacophore element distance, pharmacophore element C7: 0
  Ligand-pharmacophore element distance, pharmacophore element CA1: 0.41
  Ligand-pharmacophore element distance, pharmacophore element CA2: 0.43
  Ligand-pharmacophore element distance, pharmacophore element CA3: 0
  Ligand-pharmacophore element distance, pharmacophore element CA4: 0
  Ligand-pharmacophore element distance, pharmacophore element CA5: 0
  Ligand-pharmacophore element distance, pharmacophore element CA6: 0
[1]
  d(C3,CA1): 2.85
  d(CA1,N1)2: 1.38
  d(CA1,O1): 4.43
  d(CA1,O2): 4.01
  d(H4,O1): 4.38
  d(H4,O2): 3.84
  d(O1,O2): 3.08
[2]
  d(N2,C4): 7.87
  d(N2,C4)4: 7.87
  d(N2,CA2): 5.92
  d(O2,H3): 4.54
  d(O2,N2): 2.75
Table A6-1 pharmacophore angle
  a(C3, CA1, O1): 150.10
  a(CA1, O1, O2): 103.89
  a(O1, O2, H4): 136.71
  a(N1, CA1, O1) b): 173.89
Table A6-2 pharmacophore angle
  a(O1, O2, H3): 149.68
  a(O1, O2, N2): 139.05
  a(O2, N2, C4): 160.74
  a(O2, N2, C4) 2: 109.44
  a(O2, N2, CA2): 154.85
[3]
  Pharmacophore torsion angle a(C3, CA1, O1, H4): 21.76
  Pharmacophore torsion angle a(H4, O1, O2, H3): 51.26
  Pharmacophore torsion angle a(H4, O1, O2, N2): 134.72
  Pharmacophore torsion angle a(N1, CA1, O1, H4): −4.36
  Pharmacophore torsion angle a(O1, H4, O2, CA1): −83.32
[4]
  Pharmacophore torsion angle a(O1, O2, N2, CA2): 132.29

## CC(=O)Nc1ccc(CCNC(CCc2ccccc2)C(=O)NC(C)C(=O)NCc2ccc(C(=N)N)cc2)cc1.Cl.Cl (stereo not drawn) [1345_1]
  Ligand-pharmacophore element distance, pharmacophore element C2: 0
  Ligand-pharmacophore element distance, pharmacophore element C3: 0
  Ligand-pharmacophore element distance, pharmacophore element C4: 0
  Ligand-pharmacophore element distance, pharmacophore element C5: 0
  Ligand-pharmacophore element distance, pharmacophore element C6: 0
  Ligand-pharmacophore element distance, pharmacophore element C7: 0
  Ligand-pharmacophore element distance, pharmacophore element CA1: 0.51
  Ligand-pharmacophore element distance, pharmacophore element CA2: 1.2
  Ligand-pharmacophore element distance, pharmacophore element CA3: 1.44
  Ligand-pharmacophore element distance, pharmacophore element CA4: 0
  Ligand-pharmacophore element distance, pharmacophore element CA5: 0
  Ligand-pharmacophore element distance, pharmacophore element CA6: 0
[1]
  d(CA1,O1): 4.52
  d(CA1,O2): 4.49
  d(H4,O1): 4.08
  d(H4,O2): 3.57
  d(O1,O2): 3.48
[2]
  d(N2,CA2): 6.14
  d(N2,CA3): 5.17
  d(N2,O3): 8.75
  d(O2,H3): 5.98
  d(O2,N2): 2.90
Table A6-1 pharmacophore angle
  a(CA1, O1, O2): 112.39
  a(O1, O2, H4): 126.38
Table A6-2 pharmacophore angle
  a(O1, O2, H3): 149.79
  a(O1, O2, N2): 134.33
  a(O2, N2, CA2): 153.15
  a(O2, N2, CA3): 153.91
  a(O2, N2, O3): 163.54
[3]
  Pharmacophore torsion angle a(H4, O1, O2, H3): 39.71
  Pharmacophore torsion angle a(H4, O1, O2, N2): 114.36
  Pharmacophore torsion angle a(O1, H4, O2, CA1): −62.84
[4]
  Pharmacophore torsion angle a(O1, O2, N2, CA2): 138.94
  Pharmacophore torsion angle a(O1, O2, N2, CA3): −27.29
  Pharmacophore torsion angle a(O1, O2, N2, O3): −11.99
